Results taken from a melting point compilation (Tetko et al.; mined from patent text by program, amines drawn as free bases though some values may be those of a salt).

`O=[N+]([O-])C=Cc1c[nH]c2ccc(-c3ccc4[nH]cnc4c3)cc12` and `O=[N+]([O-])c1ccc(-c2cnn3c(O)ncnc23)cc1` cannot be ordered by melting point: > 280 °C for the first, > 300 °C for the second.

Compared with `C=CCNC(=O)CCCC(=O)O`, `CNC(=O)CCC(C)=S` is higher in melting point: 35.1 °C for the first, 67 to 70 °C for the second.

First: CCCCCCCN(CC(c1ccccc1)c1ccccc1)C(=O)Nc1c(C)cccc1C
Second: CCN(CC)CCNC(=O)Cn1cc(-c2ccccc2)c(-c2ccccc2)n1
The melting point of the first is higher: 171 to 173 °C for the first, 80 to 83 °C for the second.

First: CC(C)N1C(=O)[C@@H](CCO)O[C@H](c2ccccc2Cl)c2cc(Cl)ccc21 (relative stereo)
Second: OCc1ccc(Cl)cc1C(O)c1ccccc1 (stereo unspecified)
The melting point of the first is higher: 188 to 189 °C for the first, 102 to 107 °C for the second.

Compared with `CCC12CCC3=C(CCc4cc(O)ccc43)C1CCC2O` (stereo unspecified), `CC1CCC(Oc2ccc(CC(=O)c3ccc4c(c3)CCC4)cc2)(C(=O)O)C1` (stereo unspecified) is lower in melting point: 234 to 238 °C for the first, 148 to 151 °C for the second.

First: CCOC(=O)c1c(C)nc2nccnc2c1NCCCN(C)C
Second: CCN(CCNC(=O)c1ccnc(F)c1)CCNC(=O)c1cnc2cc(I)ccc2n1
The melting point of the first is lower: 42 to 44 °C for the first, 146 to 148 °C for the second.

Compared with `CCc1nsc(N=C(Cl)N(C)C)c1C#N`, `CC(Oc1ncn(-c2ccc(C(F)(F)F)cc2)n1)C(=O)N(C)C` (stereo unspecified) is higher in melting point: 95 to 97 °C for the first, 102 to 104 °C for the second.

First: COc1ccc(-c2cn(-c3nc(C)c(C(=O)NCc4ccccc4)s3)nn2)cc1
Second: CCOC(=O)c1cn(Cc2ccc(OCc3nc(-c4ccccc4)oc3C)cc2)nc1-c1cccs1
The melting point of the first is higher: 168 to 171 °C for the first, 113 to 114 °C for the second.

Compared with `Cc1cc2n[nH]c(=O)n2nc1-c1ccc(C#N)cc1`, `Cc1cnn2c(-c3cccc(-c4ccccc4C#N)c3)cnc2n1` is lower in melting point: > 300 °C for the first, 211 to 216 °C for the second.

First: O=C1C(Cl)=C(c2ccccc2)C(=O)N1c1ccc(Cl)cc1
Second: CS(=O)(=O)Nc1c(-c2ccccc2)c(=O)[nH]c2cc(Cl)ccc12
The melting point of the first is lower: 116 to 117 °C for the first, 222 to 224 °C for the second.

First: O=Cc1c(Cl)ccc(F)c1Cl
Second: O=C(c1ccc(F)c(Cc2ccc(=O)[nH]n2)c1)c1c(Cl)cc(Cl)cc1Cl
The melting point of the first is lower: 63 to 65 °C for the first, 185 °C for the second.

First: O=C(O)Cc1ccc([N+](=O)[O-])c(C(=O)c2ccc(Cl)cc2)c1
Second: CSC(=N)c1cc(Oc2ccc(C(F)(F)F)cc2Cl)ccc1[N+](=O)[O-]
The melting point of the first is higher: 182 to 183 °C for the first, 103 °C for the second.

First: CCOP(=O)(OCC)C(Cc1cc(C)c(O)c(OC)c1)c1cccnc1 (stereo unspecified)
Second: CCOc1ccc(NC=C(C#N)C(=O)Nc2cc(OC)c(Cl)cc2Cl)cc1F
The melting point of the first is lower: 85 to 87 °C for the first, 245 to 247 °C for the second.

First: Cc1nc(-c2ccccc2)cc(-c2cccc(C=O)c2)c1C(=O)NCCN1CCOCC1
Second: CCOC(=O)C1(c2ccc3c(c2)OCC(Cc2ccc(-c4ccccc4)cc2)C3=O)CCCC1 (stereo unspecified)
The melting point of the first is higher: 122 to 125 °C for the first, 50 to 56 °C for the second.

First: COC(=O)COc1cc(C(F)(F)F)cc(C(F)(F)F)c1
Second: Oc1cc(C(F)(F)F)nc2cc(C(F)(F)F)ccc12
The melting point of the first is lower: 65 to 67 °C for the first, 184 to 185 °C for the second.

First: CC(C)(C)C1=NN=C(N)SC1
Second: CC(C)(C)c1ccc(OC2CCOC2)c(N)c1 (stereo unspecified)
The melting point of the first is lower: 75 to 77 °C for the first, 79 to 82 °C for the second.

Compared with `CC(=O)SCC1CN2CCCC(C(=O)OC(C)(C)C)N2C1=O` (stereo unspecified), `CC(C)(C)OC(=O)[C@@H]1CN(Cc2ccccc2)C(=O)N1` is higher in melting point: 92 to 93 °C for the first, 96 to 98 °C for the second.

First: COc1cc(Br)c2nc(-c3ccc(OC)c(F)c3)cc(Cl)c2c1
Second: COc1cc(-c2cnc3[nH]cc(C(=O)C(C)(C)C)c3n2)cc(OC)c1OC
The melting point of the first is lower: 176 to 177 °C for the first, 240 to 241 °C for the second.

First: O=C(c1ccc(-c2ccc(O)cc2)cc1)C1CC=CC1
Second: COc1ccc2cc(CNc3ccc(O)cc3)ccc2c1
The melting point of the first is higher: 153 to 155 °C for the first, 139 to 140 °C for the second.

Compared with `COC(=O)c1ccc2c(c1)CN(c1c(F)cc3c(=O)c(C(=O)O)cn4c3c1OCC4C)C2` (stereo unspecified), `COc1ccc(C2=NN(Cc3cccc(C(=O)O)c3)C(=O)[C@H]3CCCC[C@@H]23)cc1OC` (relative stereo) is lower in melting point: 257 to 262 °C for the first, 133 to 136 °C for the second.

First: COCCNC(=O)c1cccc(-c2cccc3cc(Cc4cccc(Cl)c4)sc23)c1
Second: Cc1c(Cc2cccc(C(F)(F)F)c2)sc2c(-c3cc(F)cc(C(=O)NCCO)c3)cccc12
The melting point of the first is lower: 120 to 134 °C for the first, 151 to 152 °C for the second.

First: Cc1cc(-c2nc3ccccc3c(=O)n2-c2ccc(Cl)cc2)cc(C)c1OCCO
Second: Cn1c2ccccc2c2c3ccccc3ccc21
The melting point of the first is lower: 101 to 103 °C for the first, 116 to 118 °C for the second.

Compared with `COc1ccc(C2(C#Cc3ccccn3)CCC3(CC2)OCCO3)cc1OC1CCCC1`, `COC(=O)CC(C#N)c1ccc(OC)c(OC2CCCC2)c1` (stereo unspecified) is higher in melting point: 41 to 42 °C for the first, 69 to 71 °C for the second.

First: CCCN(Cc1ccc(-c2ccccc2-c2nnn[nH]2)cc1)c1nn(C)cc1C(=O)O
Second: CCOC(=O)c1ccc(-c2n[nH]c3ccccc23)cc1
The melting point of the first is lower: 101 to 105 °C for the first, 133 to 135 °C for the second.

First: O=C1c2cc(O)ccc2N(Cc2ccccc2)C2=NCCN12
Second: COc1ccc2c(c1)CC(C)(CN1CCN(c3ccccc3)CC1)NC2=O (stereo unspecified)
The melting point of the first is higher: 225 to 227 °C for the first, 93 to 95 °C for the second.

Compared with `CCOc1ccc(OCC(C)(NS(=O)(=O)Cc2ccccc2)C(=O)N2CCOCC2)cc1` (stereo unspecified), `NS(=O)(=O)Oc1cccc(C(=O)c2ccccc2)c1` is lower in melting point: 109 to 111 °C for the first, 72 to 74 °C for the second.

Compared with `O=S(=O)(c1ccccc1)n1ccc2cc3c(cc21)OCO3`, `O=C(O)c1ccc(CNC(=O)[C@@H]2Cc3ccccc3N2S(=O)(=O)c2ccc(I)cc2)cc1` is lower in melting point: 142 to 145 °C for the first, 110 to 120 °C for the second.

First: Nc1ccc(OCCCOc2ccc(N)cc2[N+](=O)[O-])c([N+](=O)[O-])c1
Second: O=[N+]([O-])c1cccnc1Nc1ccc2c(c1)COC2
The melting point of the first is higher: 152 to 153 °C for the first, 146 to 147 °C for the second.

First: Cc1cc2c(F)cc(F)c(-n3c(=O)cc(C(F)(F)F)n(C)c3=O)c2o1
Second: O=C1CCc2ccc(Oc3c(F)cc(C(F)(F)F)cc3Cl)cc21
The melting point of the first is higher: 176 to 178 °C for the first, 75 °C for the second.

Compared with `COc1ccc(Sc2cncc3sc(C(N)=O)cc23)cc1`, `COc1ccc(COc2cncc3c2C(=O)c2c(NCCN(C)C)ccc(Cl)c2C3=O)cc1` is lower in melting point: 219 to 221 °C for the first, 127 to 128 °C for the second.

First: CC1(C)CC(=O)OC(C(Cl)(Cl)Cl)C1Br (stereo unspecified)
Second: O=C(C(Cl)Cl)N1CCOC1C(Cl)Cl (stereo unspecified)
The melting point of the first is higher: 98.5 to 99.5 °C for the first, 80 °C for the second.

Compared with `CC(N)C(=O)N1C(C(=O)O)CC2CCCCC21` (stereo unspecified), `O=C(O)c1cccc2c1NCCC2C(=O)O` (stereo unspecified) is higher in melting point: 163 to 165 °C for the first, 215 to 216 °C for the second.

`COc1ccc(N(C)c2nc(C)nc3oc4c(c23)CCCC4)cc1` and `COc1cc(C(=O)N2CCC3(CC2)Cc2ccccc2O3)cc(OC)c1OC` cannot be ordered by melting point: 147 to 149 °C for the first, 148 to 150 °C for the second.

First: CN1CC(CNN)CC2c3cccc4c3c(cn4C)CC21 (stereo unspecified)
Second: O=c1ccn(-c2cccc(C(F)(F)F)c2)nc1-c1ccnn1CC1CC1
The melting point of the first is lower: 102 to 103 °C for the first, 155 to 157 °C for the second.

First: C=C(C)C(=O)CCCCCCOc1ccc(C(=O)O)cc1
Second: CCCCCCCOc1ccc2c(c1)Nc1cccc(S(=O)(=O)N(C)C)c1S2
The melting point of the first is lower: 81 to 94 °C for the first, 160 to 162 °C for the second.

First: CCOC(=O)C1=C(C)NC(C=NO)=C(C(=O)OCC)C1c1ccccc1Cl (stereo unspecified)
Second: CCOC(=O)C1=C(N)NC(N)=C(C(=O)OCC)C1c1cccc2ccccc12
The melting point of the first is lower: 136 to 137 °C for the first, 162 to 163 °C for the second.

Compared with `CCOC(=O)c1nc(/C=C/c2ccc([N+](=O)[O-])o2)no1`, `Cc1cc(NC(=O)C2CSc3sccc3C2=O)no1` (stereo unspecified) is higher in melting point: 138 to 139 °C for the first, 143 to 146 °C for the second.

Compared with `Cc1ccc(-c2ccccc2CC(N)=NO)cc1`, `CC(C)c1nc(C(C)C)c(CC=Cc2ccccc2)c(-c2ccc(F)cc2)c1CO` is lower in melting point: 127 to 128 °C for the first, 72 to 73 °C for the second.

First: CS(=O)c1cn(-c2c(Cl)cc(C(F)(F)F)cc2Cl)nc1C=NO (stereo unspecified)
Second: CC(=O)c1cc(Cl)sc1S(=O)(=O)Nc1ccc(CCO)cc1
The melting point of the first is higher: 239 to 240 °C for the first, 112 to 116 °C for the second.

First: O=[N+]([O-])c1ccc2nc(N3CCNCC3)ccc2c1
Second: O=[N+]([O-])c1ccccc1N1CCCc2ccccc21
The melting point of the first is higher: 153 °C for the first, 69 to 71 °C for the second.

Compared with `CC(C)CC(=O)Nc1cccc(-c2ccnc3c(-c4ccc(Oc5ccccc5)cc4)cnn23)c1`, `Cc1ccccc1C(=O)n1ccc(-c2ccc(C(=O)N3Cc4cccn4Cc4ccccc43)cc2)n1` is lower in melting point: 175 to 178 °C for the first, 170 to 173 °C for the second.

First: CC(=O)Oc1c(C)c(C)c2c(c1C)CC(C)(C=O)O2 (stereo unspecified)
Second: COc1ccc2nc3n(c(=O)c2c1OC)CS(=O)(=O)N3
The melting point of the first is lower: 78 to 79 °C for the first, > 300 °C for the second.

First: Oc1ccc2sc(-c3ccc(OCCN4CCCC4)cc3)c(Cc3ccc(OC4CCCCC4N4CCCCC4)cc3)c2c1 (stereo unspecified)
Second: O=C(ON1C(=O)CCC1=O)c1ccc(-c2ccc(S(=O)(=O)N3CCCC(CO)C3)cc2)[nH]c1=O (stereo unspecified)
The melting point of the first is lower: 103 to 106 °C for the first, 201 to 204 °C for the second.

First: CC(=O)NCCCc1ccc(Cl)c2occc12
Second: CC(C)(C)c1ccc(CCC=O)cc1NC(=O)CC1c2ccccc2Oc2ccccc21
The melting point of the first is lower: 61 to 62 °C for the first, 176 to 177 °C for the second.

First: N#Cc1ccccc1OC[C@@H](O)CNCCOc1ccc2oc(-c3ccon3)cc2c1
Second: O=c1oc(Nc2ccccc2I)nc2ccccc12
The melting point of the first is lower: 94 to 95 °C for the first, 140 to 143 °C for the second.

First: Cc1c(C(=O)Nc2ccc(N3CCN(CCN(C)C)CC3)c(C#N)c2)cnn1-c1ccc(F)cc1
Second: Cc1c(C=O)cc(-c2ccc(S(C)(=O)=O)cc2)n1-c1ccc(F)cc1
The melting point of the first is higher: 185 °C for the first, 136 to 138 °C for the second.

First: CC/C(=C(\c1ccc(/C=C/C(=O)O)cc1)c1ccc(OC(=O)c2ccco2)cc1)c1ccccc1
Second: O=C(C=Cc1ccc(O)cc1)N1CCc2c([nH]c3ccccc23)C1c1ccc2c(c1)CCO2 (stereo unspecified)
The melting point of the first is lower: 170 to 172 °C for the first, 189 °C for the second.

First: N#CC(=C(O)c1ccncc1)c1ccc(F)cc1
Second: NC(=O)c1cc(-n2c(-c3ccccc3)cc3c2CCc2ccccc2-3)ccc1O
The melting point of the first is higher: 225 °C for the first, 213 to 215 °C for the second.

Compared with `CCCN(CCC)C(=O)n1cnc(S(=O)(=O)CCC)n1`, `CNS(=O)(=O)N1CC2(CCN(C(=O)Nc3nnc(-c4ccccc4)s3)CC2)c2ccccc21` is higher in melting point: 79 to 80 °C for the first, 230 to 231 °C for the second.

First: Nc1c(Cl)ncnc1Nn1cccc1
Second: Cc1noc2cc3c(cc12)C1(CO3)C(=O)N(CC2CCCO2)c2ccccc21 (stereo unspecified)
The melting point of the first is lower: 130 to 132 °C for the first, 134 to 135 °C for the second.

Compound `CN1CCN(CCCC2CCN(C(=O)N3c4ccccc4C(=O)Nc4cccnc43)CC2)CC1` has a melting point of 213 to 214 °C.
